Source: ChEMBL document CHEMBL3769374, “Novel N-thiazolyl piperazine-1-carboxamide CCR2 antagonists investigation of an unexpected reaction with glutathione” (Medchemcomm, 2015)

Assays:
[1] = molecular target: C-C chemokine receptor type 2 (Homo sapiens, UniProt P41597); assay: Antagonist activity at human C-C chemokine receptor type 2 expressed in THP-1 cells assessed as inhibition of CCL2-induced calcium flux preincubated for 10 mins followed by CCL2 addition by Fluo-4 dye based FLIPR assay; type: functional, cell-based
[2] = Glutathione reactivity at 50 uM measured over 18 hrs by LC-UV method
[3] = Glutathione reactivity assessed as half life of compound at 50 uM measured over 18 hrs by LC-UV method; type: physicochemical; conditions: glutathione solution (chemical reactivity test)
[4] = molecular target: T1, C-C chemokine receptor type 2 (Rattus norvegicus, UniProt O55193); assay: Antagonist activity at rat C-C chemokine receptor type 2 assessed as inhibition of CCL2-induced calcium flux; type: functional
T1 sequence (O55193 whole entry): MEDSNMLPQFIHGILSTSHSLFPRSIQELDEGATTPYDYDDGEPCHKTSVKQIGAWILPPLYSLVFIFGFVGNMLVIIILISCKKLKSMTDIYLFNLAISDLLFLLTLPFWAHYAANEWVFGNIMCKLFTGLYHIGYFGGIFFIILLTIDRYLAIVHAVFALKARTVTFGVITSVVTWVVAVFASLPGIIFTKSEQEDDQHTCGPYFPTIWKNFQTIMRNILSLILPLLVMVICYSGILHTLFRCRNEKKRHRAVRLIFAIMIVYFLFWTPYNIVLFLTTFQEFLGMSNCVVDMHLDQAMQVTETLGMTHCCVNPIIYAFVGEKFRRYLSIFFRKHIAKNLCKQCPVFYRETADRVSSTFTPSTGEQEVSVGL

Sequence of C-C chemokine receptor type 2 (Homo sapiens, UniProt P41597) (P41597 whole entry): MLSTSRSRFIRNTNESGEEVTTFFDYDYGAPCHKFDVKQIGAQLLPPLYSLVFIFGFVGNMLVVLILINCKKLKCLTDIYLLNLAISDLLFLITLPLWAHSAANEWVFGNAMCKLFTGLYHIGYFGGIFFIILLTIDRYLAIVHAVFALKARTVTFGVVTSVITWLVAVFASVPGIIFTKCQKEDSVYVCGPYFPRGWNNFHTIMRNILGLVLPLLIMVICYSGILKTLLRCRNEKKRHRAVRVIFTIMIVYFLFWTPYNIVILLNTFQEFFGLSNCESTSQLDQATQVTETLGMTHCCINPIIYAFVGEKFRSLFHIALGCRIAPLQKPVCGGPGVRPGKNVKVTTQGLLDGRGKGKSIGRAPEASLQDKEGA

Structure (SMILES) | IC50 [1] | Drug metabolism [2] | half-life at 50 µM [3] | IC50 [4]
CC(C)(C)N1CCN[C@@H](C(=O)N2CCN(C(=O)Nc3nc(C4CC4)cs3)CC2)C1 | 1.1 nM | Metabolite not detected |  | 
COc1sc(NC(=O)N2CCN(C(=O)[C@H]3CN(C(C)(C)C)CCN3)CC2)nc1C | 41 nM | Metabolite not detected |  | 
CC(C)(C)N1CCN[C@@H](C(=O)N2CCN(C(=O)Nc3ncc(F)s3)CC2)C1 | 9.2 nM | Metabolite not detected |  | 
CC(C)(C)N1CCN[C@@H](C(=O)N2CCN(C(=O)Nc3nc(C4CC4)c(Cl)s3)CC2)C1 | < 0.45 nM |  |  | 
CCc1nc(NC(=O)N2CCN(C(=O)[C@H]3CN(C(C)C)CCN3)CC2)sc1Cl | 1.7 nM |  |  | 
CC(C)N1CCN[C@@H](C(=O)N2CCN(C(=O)Nc3nc(C(C)(C)C)c(F)s3)CC2)C1 | 2.7 nM | Metabolite not detected |  | 
Cc1nc(NC(=O)N2CCN(C(=O)[C@H]3CN(C(C)(C)C)CCN3)CC2)sc1Br | < 0.45 nM |  |  | 
CC(C)(C)N1CCN[C@@H](C(=O)N2CCN(C(=O)Nc3ncc(Cl)s3)CC2)C1 | 7.4 nM | Metabolite not detected |  | 
CC(C)c1nc(NC(=O)N2CCN(C(=O)[C@H]3CN(C(C)C)CCN3)CC2)sc1Cl | 1.2 nM |  |  | 
O=[N+]([O-])c1ccc(CCl)cc1 |  |  | 3.6 h | 
CC(C)N1CCN[C@@H](C(=O)N2CCN(C(=O)Nc3nc(C(C)(C)C)c(Cl)s3)CC2)C1 | 2.3 nM |  |  | 
CC(=O)Nc1nc(C)c(Br)s1 |  | Metabolite not detected |  | 
Cc1nc(NC(=O)N2CCN(C(=O)[C@H]3CN(C(C)(C)C)CCN3)CC2)sc1Cl | 0.65 nM |  |  | 
CC(C)(C)N1CCN[C@@H](C(=O)N2CCN(C(=O)Nc3nc(C(F)(F)F)c(Cl)s3)CC2)C1 | 0.13 nM | Metabolite not detected |  | 1.3 nM
